One test relates to peritoneal immune cells. As to the kind of experiment: Expansion of peritoneal cells after subcutaneous injection, flow cytometry. The test is classed as in vivo, C57BL/6 mice. The settings on record: for Change in mature, active peritoneal immune cell populations: 1 nmol/g s.c. on days 0, 2, 4, cells 24 h after each injection. The procedure: FIGS. 7A-7D. Expansion of peritoneal cells in C57BL/6 mice. Mice were injected subcutaneously at a dose of 1 nmol/g body weight of svL4, sv6D or svC1. Cells in each population recovered in a peritoneal lavage are expressed as cell counts (in thousands). Cells from three mice in each treatment group were pooled for analysis. The number of cells in each population was normalized to the average recovery of total cells from all groups. For each cell type, the left-hand, middle and right-hand set of bars represent samples from mice treated with svL4, sv6D or svC1, respectively. Mice were injected on days 0, 2 and 4, and cells were collected 24 h after each injection. Day 1, open bar; day 3, grey bar; day 5, black bar. Populations that express activation markers are indicated by an asterisk.
Flow Cytometry Healthy C57BL/6 male mice, 10 weeks old, were injected subcutaneously with peptides on alternate days. Peritoneal cells were isolated from mice 24 h after dosing by injecting ice cold PBS (containing 3% FBS) into the peritoneal cavity, gently massaging the abdomen, and then collecting the fluid, which was transferred into K2EDTA-treated tubes for evaluation of specific biomarkers. Cells from three mice in each group were pooled, counted and divided among FACS tubes (1×10^6 cells per tube). Cells were washed once in PBS containing 3% FBS, then stained with 0.25 to 1 μg of fluorescently conjugated antibody per 10^6 cells in 100 μL of buffer as recommended by the manufacturer (Table 1).
Cells were incubated with the antibodies for 30 min at 4° C. in the dark. Following staining, the cells were washed two times with PBS/3% FBS and immediately analyzed with a MACSQuant flow cytometer (Miltenyi Biotech, Inc., San Diego, Calif.). Compensation was performed using single stain tubes for each color present in the analysis as well as an unstained control sample. Collection of flow cytometric data and analysis with FlowJo software, version 10.0.6 (FlowJo, LLC, Ashland, Oreg.) were performed by Biomodels LLC (Watertown, Mass.).
To examine whether increases occurred in mature immune cells, peritoneal cells from Balb/c and C57BL/6 mice were analyzed by flow cytometry after cells were stained with the markers listed in Table 1. […] To explore this observation more extensively, svL4 or sv6D was injected into C57BL/6 mice on day 0, 2 or 4. Peritoneal cells were examined by flow cytometry 24 h after each injection. Shown in FIGS. 7A-7D are results expressed as cell counts for F4/80 CD11b CD86 (mature, active macrophages); CD11c (DCs); CD11c CD86 (activated DCs); CD4 CD69 (activated T cells); CD8 CD69 (activated cytotoxic T cells); NK1.1 CD3^+ CD69 (activated NKT cells); NK1.1 CD3^− CD69 (activated NK cells); CD19 (B cells); and CD19 CD73 CD80 CD273 (memory B cells). The numbers of these mature, activated cells continued to increase with each injection.
For orientation: A flow cytometer gives signals particle by particle.

In test [1] the target is T1, recombinant human CLEC10A (Homo sapiens, UniProt Q8IUN9).
T1 construct: The extracellular domains of receptors, which were fused with the Fc domain of immunoglobulin IgG; purchased R&D Systems
T1 sequence (Q8IUN9 61-316 limits assumed): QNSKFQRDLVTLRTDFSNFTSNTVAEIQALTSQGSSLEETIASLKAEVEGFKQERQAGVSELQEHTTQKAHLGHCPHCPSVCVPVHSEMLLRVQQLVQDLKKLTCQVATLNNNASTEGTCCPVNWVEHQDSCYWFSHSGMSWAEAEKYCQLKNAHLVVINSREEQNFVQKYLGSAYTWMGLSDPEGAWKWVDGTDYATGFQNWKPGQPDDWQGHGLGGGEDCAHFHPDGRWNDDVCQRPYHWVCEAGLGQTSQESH
As to the kind of experiment: Solid-phase binding assay with recombinant receptors. The settings on record: for Binding to CLEC10A: biotinylated tetravalent peptide. The method, then: Binding Assays Solid-phase binding assays were performed with streptavidin-, protein A/G-, or Nickel-coated microtiter plates (Pierce). His-tagged or Fc-fusion recombinant receptors (R&D Systems, Minneapolis, Minn.) were reconstituted in PBS. Sufficient receptors were added to wells to saturate the coating. His-tagged receptors were added to each well at a 5-fold excess over the stated capacity of the Ni coating to minimize non-specific binding of the peptide. Wells were washed three times with binding buffer (25 mM Tris HCl, pH 7.4, 150 mM NaCl, 0.05% Tween-20) to remove unbound receptor and 50 μL of 2 μM biotinylated peptide in binding buffer were added and allowed to incubate for 1 h. The wells were washed four times with binding buffer and then incubated with 50 μL of 1 μg/mL streptavidin conjugated with peroxidase (Sigma-Aldrich) for 1 h. The wells were washed five times with binding buffer and 50 μL of peroxidase substrate (1-Step™ Ultra TMB, Pierce) were added. After several minutes to allow color development, the reaction was stopped with 50 μL 1 M H3PO4 and absorbance was measured at 450 nm. Bound streptavidin was quantitated by the specific activity of peroxidase (absorbance/ng protein conjugate/min) under the conditions of the assay.
Solid-phase binding assays were performed with recombinant human receptors. Three variations of the binding assay were used in this study, all of which allowed the arms of the tetravalent peptide to have full flexibility. (i) Biotinylated peptide was bound in microtiter wells coated with streptavidin and incubated with recombinant human receptors. After extensive washing, the bound receptor was measured by peroxidase conjugated to a receptor-specific antibody. (ii) The extracellular domains of receptors, which were fused with the Fc domain of immunoglobulin IgG, were bound in wells coated with protein A/G. Biotinylated peptide was incubated with the receptors and, after extensive washing, bound peptide was measured with streptavidin conjugated with peroxidase. Or (iii), recombinant receptors with a poly-His tag were bound to Nickel-coated wells and incubated with biotinylated peptide. svL4 and sv6D contain His residues (FIGS. 1A, 1C) and can bind to the Ni coating, which was minimized by adding sufficient poly-His-tagged receptor to saturate the Ni coating.

Positions of bridges follow the written chain, without caps; N, C: chain ends. Chains are numbered I, II in the order given.

Consider “I: H-NQHTPRGGGSKK-NH2 / II: H-NQHTPRGGGSK / III: H-NQHTPRGGGS / IV: H-NQHTPRGGGS (amide I:11-IV:C, I:12-II:C, II:11-III:C) [sv6D]”, for which the “Change in mature, active peritoneal immune cell populations” value in the test with peritoneal immune cells is on record as “several-fold increases”. The “Overall peritoneal cell responses compared with svL4” value with peritoneal immune cells (DCs, T cells, NKT cells, days 0, 2, 4) was “greater than those to svL4”. The “Binding to CLEC10A” value in test [1] is reported as “bound as strongly as the full-length sequence”. Also, the “Ca2+ dependence of binding” value in test [1] (chelation of Ca2+ with low concentrations of EGTA, CLEC10A and ASGPR-1) is “requires Ca^2+”.
For the substance “I: H-VQATQSNQHTPRGGGSKK-NH2 / II: H-VQATQSNQHTPRGGGSK / III: H-VQATQSNQHTPRGGGS / IV: H-VQATQSNQHTPRGGGS (amide I:17-IV:C, I:18-II:C, II:17-III:C) [svL4]”, the “Injection after which a significant increase in peritoneal cells occurred” value in the test on peritoneal immune cells (1 nmol/g s.c.) is recorded as “only after the second injection”. The “Change in mature, active peritoneal immune cell populations” value in the test on peritoneal immune cells is listed as “several-fold increases”. Moreover, the “Response of CD19+ B cells” value with peritoneal immune cells (compared with sv6D) was “responded more strongly”. In addition, the “Binding to CLEC10A” value in test [1] is “bound”.
